In PubChem BioAssay AID248 (DTP/NCI, 2004):
Several values for one entry are separate records, joined by “and”; a condition that tells them apart may be missing. Equal entries are not always repeated. Toxic doses and inconclusive results are not listed. Rule as the data show it: active = T/C of 150% or more; inactive = T/C below 125%.

Test system: L1210 leukemia ip in BDF1 mice, survival T/C
Assay: NCI In Vivo Anticancer Drug Screen. Data for tumor model L1210 Leukemia (intraperitoneal) in B6D2F1 (BDF1) mice
Details: endpoint: mean survival time, higher = longer survival
How it was run: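 Antitumor effect is assessed in tumor-bearing animals. Survival in the compound arm is compared with a vehicle-dosed control arm and expressed as their quotient.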

[1] = dose: 100.0 mg/kg/injection, schedule: Q04DX003 (ip), vehicle: Klucel (hydroxypropylcellulose) (HPC)
[2] = dose: 200.0 mg/kg/injection, schedule: Q04DX003 (ip), vehicle: Klucel (hydroxypropylcellulose) (HPC)
[3] = dose: 400.0 mg/kg/injection, schedule: Q04DX003 (ip), vehicle: Klucel (hydroxypropylcellulose) (HPC)
[4] = dose: 100.0 mg/kg/injection, schedule: Q04DX003 (ip), vehicle: saline with Tween-80
[5] = dose: 200.0 mg/kg/injection, schedule: Q04DX003 (ip), vehicle: saline with Tween-80
[6] = dose: 50.0 mg/kg/injection, schedule: Q01DX009 (ip), vehicle: Klucel (hydroxypropylcellulose) (HPC)
[7] = dose: 100.0 mg/kg/injection, schedule: Q01DX009 (ip), vehicle: Klucel (hydroxypropylcellulose) (HPC)
[8] = dose: 200.0 mg/kg/injection, schedule: Q01DX009 (ip), vehicle: Klucel (hydroxypropylcellulose) (HPC)
[9] = dose: 100.0 mg/kg/injection, schedule: Q04DX003 (ip), vehicle: saline
[10] = dose: 200.0 mg/kg/injection, schedule: Q04DX003 (ip), vehicle: saline
[11] = dose: 400.0 mg/kg/injection, schedule: Q04DX003 (ip), vehicle: saline

Measured: T/C

[O-]/[N+](=C\c1ccccc1)c1ccc(Cl)cc1
inactive: dose: 75.0 mg/kg/injection, schedule: Q01DX001 (ip), vehicle: saline 96 % of control | dose: 150.0 mg/kg/injection, schedule: Q01DX001 (ip), vehicle: saline 95 % of control | dose: 300.0 mg/kg/injection, schedule: Q01DX001 (ip), vehicle: saline 91 % of control

CCCC(=O)OC(=O)N/C=C/NC(=O)OC(=O)CCC
inactive: dose: 100.0 mg/kg/injection, schedule: Q01DX001 (ip), vehicle: alcohol 103 % of control | dose: 200.0 mg/kg/injection, schedule: Q01DX001 (ip), vehicle: alcohol 103 % of control | dose: 400.0 mg/kg/injection, schedule: Q01DX001 (ip), vehicle: alcohol 94 % of control

ClCc1ccccc1CCc1ccccc1CCl
inactive: [1] 105 % of control | [2] 94 % of control | [3] 105 % of control

Cc1ccc(NC(=O)C(Cl)(Cl)Cl)cc1C
inactive: [1] 93 % of control | [2] 101 % of control | [3] 90 % of control

OCCN(Cc1ccccc1)Cc1ccccc1
inactive: [4] 101 % of control | [5] 95 % of control

CCCCOc1ccc(OCCCCCCCCCC[N+](C)(C)C)cc1
inactive: dose: 1.56 mg/kg/injection, schedule: Q04DX002 (ip), vehicle: saline 103 % of control | dose: 3.13 mg/kg/injection, schedule: Q04DX002 (ip), vehicle: saline 96 % of control | dose: 6.25 mg/kg/injection, schedule: Q04DX002 (ip), vehicle: saline 96 % of control | dose: 12.5 mg/kg/injection, schedule: Q04DX002 (ip), vehicle: saline 97 % of control and 122 % of control

Cc1c2cccc(Sc3ccccc3)c2c2c3c(cccc13)[S+](c1ccccc1)C2 (stereo unspecified)
inactive: dose: 1.56 mg/kg/injection, schedule: Q01DX009 (ip), vehicle: saline 104 % of control | dose: 3.12 mg/kg/injection, schedule: Q01DX009 (ip), vehicle: saline 101 % of control | dose: 6.25 mg/kg/injection, schedule: Q01DX009 (ip), vehicle: saline 105 % of control | dose: 12.5 mg/kg/injection, schedule: Q01DX001 (ip), vehicle: saline with Tween-80 97 % of control | dose: 12.5 mg/kg/injection, schedule: Q01DX001 (ip), vehicle: saline 100 % of control | dose: 12.5 mg/kg/injection, schedule: Q01DX009 (ip), vehicle: saline 91 % of control | dose: 25.0 mg/kg/injection, schedule: Q01DX001 (ip), vehicle: saline 93 % of control | dose: 50.0 mg/kg/injection, schedule: Q01DX001 (ip), vehicle: saline with Tween-80 95 % of control | dose: 50.0 mg/kg/injection, schedule: Q01DX001 (ip), vehicle: saline 86 % of control

CCO/C=N\c1c(C#N)c(CC#N)nn1-c1ccccc1
inactive: [6] 100 % of control | [7] 91 % of control | [8] 100 % of control

CC(=O)Nc1ccc(S(=O)(=O)NC(=O)NC(C)C)cc1
inactive: [4] 103 % of control | [5] 97 % of control | dose: 400.0 mg/kg/injection, schedule: Q04DX003 (ip), vehicle: saline with Tween-80 100 % of control

O=C(CCNC(=O)c1ccccc1)Oc1ccccc1
inactive: [9] 93 % of control | [10] 95 % of control | [11] 92 % of control

CCOC(=O)c1cnc(SCC)nc1N
inactive: [9] 101 % of control | [10] 98 % of control | [11] 103 % of control

O=C1c2cc(Br)ccc2-c2c(Cl)cc(Br)cc21
inactive: dose: 100.0 mg/kg/injection, schedule: Q01DX001 (ip), vehicle: carboxymethylcellulose (CMC) 105 % of control | dose: 200.0 mg/kg/injection, schedule: Q01DX001 (ip), vehicle: carboxymethylcellulose (CMC) 97 % of control | dose: 400.0 mg/kg/injection, schedule: Q01DX001 (ip), vehicle: carboxymethylcellulose (CMC) 105 % of control

CCOc1ccc(C(c2ccc(OCC)cc2)C(Cl)(Cl)Cl)cc1
inactive: dose: 100.0 mg/kg/injection, schedule: Q01DX001 (ip), vehicle: Klucel (hydroxypropylcellulose) (HPC) 106 % of control | dose: 200.0 mg/kg/injection, schedule: Q01DX001 (ip), vehicle: Klucel (hydroxypropylcellulose) (HPC) 100 % of control | dose: 400.0 mg/kg/injection, schedule: Q01DX001 (ip), vehicle: Klucel (hydroxypropylcellulose) (HPC) 100 % of control

CCN=C(c1ccc(NC(=O)c2ccc(C(=O)Nc3ccc(C(=NCC)N(CC)C(=O)NCCCCl)cc3)cc2)cc1)N(CC)C(=O)NCCCCl
inactive: dose: 0.5 mg/kg/injection, schedule: Q01DX015 (ip), vehicle: methylcellulose (MC) 100 % of control | dose: 1.0 mg/kg/injection, schedule: Q01DX015 (ip), vehicle: methylcellulose (MC) 102 % of control | dose: 2.0 mg/kg/injection, schedule: Q01DX015 (ip), vehicle: methylcellulose (MC) 111 % of control

O=C1OCC/C1=C/CCCCCC/C=C1\CCOC1=O
inactive: dose: 50.0 mg/kg/injection, schedule: Q01DX009 (ip), vehicle: DMSO 92 % of control | dose: 100.0 mg/kg/injection, schedule: Q01DX009 (ip), vehicle: DMSO 90 % of control | dose: 100.0 mg/kg/injection, schedule: Q04DX003 (ip), vehicle: DMSO 102 % of control | dose: 200.0 mg/kg/injection, schedule: Q01DX009 (ip), vehicle: DMSO 91 % of control | dose: 200.0 mg/kg/injection, schedule: Q04DX003 (ip), vehicle: DMSO 101 % of control | dose: 400.0 mg/kg/injection, schedule: Q04DX003 (ip), vehicle: DMSO 94 % of control

O=S(=O)(/C=C/c1ccccc1)Oc1ccc(-c2ccccc2)cc1
inactive: dose: 100.0 mg/kg/injection, schedule: Q01DX001 (ip), vehicle: acetone 104 % of control | dose: 100.0 mg/kg/injection, schedule: Q01DX009 (ip), vehicle: acetone 90 % of control | dose: 100.0 mg/kg/injection, schedule: Q04DX003 (ip), vehicle: acetone 97 % of control | dose: 200.0 mg/kg/injection, schedule: Q01DX001 (ip), vehicle: acetone 98 % of control | dose: 200.0 mg/kg/injection, schedule: Q04DX003 (ip), vehicle: acetone 91 % of control | dose: 400.0 mg/kg/injection, schedule: Q01DX001 (ip), vehicle: acetone 98 % of control | dose: 400.0 mg/kg/injection, schedule: Q01DX009 (ip), vehicle: acetone 90 % of control | dose: 400.0 mg/kg/injection, schedule: Q04DX003 (ip), vehicle: acetone 91 % of control

CN(C)N=C(c1ccccc1)c1ccccc1
inactive: [6] 86 % of control | [7] 97 % of control

O=c1[nH]cnc2nc(I)[nH]c12
inactive: dose: 100.0 mg/kg/injection, schedule: Q01DX001 (ip), vehicle: saline 104 % of control | dose: 200.0 mg/kg/injection, schedule: Q01DX001 (ip), vehicle: saline 98 % of control | dose: 400.0 mg/kg/injection, schedule: Q01DX001 (ip), vehicle: saline 98 % of control

O=C(CCCN1CCN(c2ccccn2)CC1)c1ccc(F)cc1
inactive: dose: 12.5 mg/kg/injection, schedule: Q01DX009 (ip), vehicle: Klucel (hydroxypropylcellulose) (HPC) 96 % of control and 106 % of control | dose: 25.0 mg/kg/injection, schedule: Q01DX009 (ip), vehicle: Klucel (hydroxypropylcellulose) (HPC) 97 % of control and 101 % of control and 106 % of control | dose: 25.0 mg/kg/injection, schedule: Q04DX003 (ip), vehicle: Klucel (hydroxypropylcellulose) (HPC) 97 % of control | [6] 108 % of control and 109 % of control and 114 % of control | dose: 50.0 mg/kg/injection, schedule: Q04DX003 (ip), vehicle: Klucel (hydroxypropylcellulose) (HPC) 108 % of control | [7] 108 % of control and 110 % of control | [1] 103 % of control | [8] 105 % of control and 110 % of control | [2] 123 % of control

CC(=O)N/C(N)=N/N=C(C)/C=N\N
inactive: dose: 15.0 mg/kg/injection, schedule: Q01DX Z (ip), vehicle: carboxymethylcellulose (CMC) 96 % of control | dose: 30.0 mg/kg/injection, schedule: Q01DX Z (ip), vehicle: carboxymethylcellulose (CMC) 96 % of control | dose: 60.0 mg/kg/injection, schedule: Q01DX Z (ip), vehicle: carboxymethylcellulose (CMC) 101 % of control | dose: 120.0 mg/kg/injection, schedule: Q01DX Z (ip), vehicle: carboxymethylcellulose (CMC) 101 % of control | dose: 120.0 mg/kg/injection, schedule: Q01DX Z (oral), vehicle: carboxymethylcellulose (CMC) 111 % of control

CC(Cl)CN(CC(C)Cl)C(=O)OCC(NC(=O)OCc1ccccc1)C(=O)OCc1ccccc1 (stereo unspecified)
inactive: [7] 88 % of control | [1] 87 % of control | [2] 96 % of control | dose: 400.0 mg/kg/injection, schedule: Q01DX009 (ip), vehicle: Klucel (hydroxypropylcellulose) (HPC) 91 % of control | [3] 91 % of control
